Tests used:
C. freundii [1] = test: ESBL NDP test using cultured strains; format: biochemical, Citrobacter freundii; set-up: key: (+) and (−) referred to color change being, red to yellow or unchanged, respectively; (+) and (−) referred to color change being, red to yellow or unchanged, respectively
Experimental: (§1) Strains were isolated on Mueller-Hinton agar (Biorad, Marnes-la-Coquette, France) and incubated at 37° C. for 16 h to 24 h before performing the NDP rapid ESBL test as follows. One calibrated inoculated loop (10 μl) of the tested strain was resuspended in 150 μl of 20 mM Tris-HCl lysis buffer previously distributed in Microbead tubes (Ultraclean Microbial DNA isolation kit Bead Tubes, MO BIO Laboratories, Carlsbad, USA). Mechanical lysis of bacteria was performed by strong agitation of Microbead tubes using a vortex adapter (MO BIO Laboratories) for 30 min at room temperature. This bacterial suspension was centrifuged at 10,000×g at room temperature for 5 min. Thirty μl of the supernatant was mixed in a well of a 96-well tray with 100 μl of a 1 ml solution made of 3 mg of purified cefotaxime sodium salt (Sigma-Aldrich, Saint-Quentin-Fallavier, France) in a pH 7.8 phenol red solution. […]. The phenol red solution was made by taking 2 ml of a concentrated pH 8 phenol solution (made from a mixture of phenol red 0.5% in distilled water) to which 16.6 ml of distilled water was added. The pH value was then adjusted to a 7.8 value by adding drops of a 1 N NaOH solution. Mixture of the phenol red solution and the enzymatic suspension being tested was incubated at 37° C. for 30 min. Similarly, culture extracts were analyzed in wells containing cefotaxime and tazobactam (4 mg/ml). Other concentrations of tazobactam and other ß-lactamase inhibitors were tested giving less clear results (data not shown). […] This definition of test positivity will be applied throughout the study.

K. pneumoniae = test: ESBL NDP test using spiked blood cultures; format: biochemical, Klebsiella pneumoniae; set-up: key: (+) and (−) referred to color change being, red to yellow or unchanged, respectively; (+) and (−) referred to color change being, red to yellow or unchanged, respectively
Experimental: as §1
Rapid detection of ESBL producers was attempted from spiked blood cultures which positivity was assessed using the BactAlert blood culture system (bioMérieux). […] This inoculum was reached after 24-48 h incubation in this BactAlert system. Strains were inoculated into blood culture system in presence of 10 ml of sterile blood. The panel of strains used for spiking blood cultures included either non-ESBL producers (n=24) or ESBL producers (n=64) (Table 4). Spiked blood cultures were made of 1×10^3 CFU of each strain and incubated 24 to 48 h before a positivity of the blood culture was detected by the BactAlert system. Then, 15 ml of spiked blood culture were transferred in a sterile tube and centrifuged at 1,500×g for 3 min to pellet the red blood cells. The supernatant was recovered and centrifuged for 15 min at 4,000×g to pellet the bacteria. The bacterial pellet was then resuspended in 500 μl of distilled water, transferred in 1.5 ml tube and thoroughly vortexed for 15 sec to lyse the remnant red blood cells and wash the bacterial pellet. After 5 min of centrifugation at 10,000×g, the bacterial pellet was resuspended in 150 μl of 20 mM Tris-HCl lysis buffer and distributed in beadtubes. The ESBL NDP test was then applied to this pellet as described above. Experiments were systematically performed in triplicate.

E. sakazakii = test: Susceptibility testing, MIC by Etest; format: cell-based; settings: overexpressed chromosome-encoded cephalosporinase, n=1
Experimental: (§2) Susceptibility testing was performed by determining MIC values using the Etest® (AB bioMérieux; Solna, Sweden) on Mueller-Hinton agar plates at 37° C. and results were recorded according to US guidelines (CLSI), as updated in 2012 (2). The breakpoints for cefotaxime are susceptible (S)≤1 and resistant (R)≥4 μg/ml, and for ceftazidime S≤4 and R≥16 μg/ml.

S. ficaria = test: Susceptibility testing, MIC by Etest; format: cell-based; settings: S. ficaria Wild-type, chromosome-encoded cephalosporinase, n=1
Experimental: as §2

C. brakii = test: Susceptibility testing, MIC by Etest; format: cell-based; settings: C. brakii Wild-type, chromosome-encoded cephalosporinase, n=1
Experimental: as §2

C. freundii [2] = test: ESBL NDP test using spiked blood cultures; format: biochemical, Citrobacter freundii; set-up: key: (+) and (−) referred to color change being, red to yellow or unchanged, respectively; (+) and (−) referred to color change being, red to yellow or unchanged, respectively; settings: C. freundii BG 1106 7767, Wild-type
Experimental: Strains were isolated on Mueller-Hinton agar (Biorad, Marnes-la-Coquette, France) and incubated at 37° C. for 16 h to 24 h before performing the NDP rapid ESBL test as follows. One calibrated inoculated loop (10 μl) of the tested strain was resuspended in 150 μl of 20 mM Tris-HCl lysis buffer previously distributed in Microbead tubes (Ultraclean Microbial DNA isolation kit Bead Tubes, MO BIO Laboratories, Carlsbad, USA). Mechanical lysis of bacteria was performed by strong agitation of Microbead tubes using a vortex adapter (MO BIO Laboratories) for 30 min at room temperature. This bacterial suspension was centrifuged at 10,000×g at room temperature for 5 min. Thirty μl of the supernatant was mixed in a well of a 96-well tray with 100 μl of a 1 ml solution made of 3 mg of purified cefotaxime sodium salt (Sigma-Aldrich, Saint-Quentin-Fallavier, France) in a pH 7.8 phenol red solution. […]. […] Similarly, culture extracts were analyzed in wells containing cefotaxime and tazobactam (4 mg/ml). […]
Rapid detection of ESBL producers was attempted from spiked blood cultures which positivity was assessed using the BactAlert blood culture system (bioMérieux). […] Spiked blood cultures were made of 1×10^3 CFU of each strain and incubated 24 to 48 h before a positivity of the blood culture was detected by the BactAlert system. […]

P. stuartii = test: Susceptibility testing, MIC by Etest; format: cell-based, Providencia stuartii; settings: P. stuartii TEM-24, n=1
Experimental: as §2

Enterobacteriaceae = format: biochemical; settings: all CTX-M producers (n=147); tazobactam added to cefotaxime well
Experimental: Strains were isolated on Mueller-Hinton agar (Biorad, Marnes-la-Coquette, France) and incubated at 37° C. for 16 h to 24 h before performing the NDP rapid ESBL test as follows. One calibrated inoculated loop (10 μl) of the tested strain was resuspended in 150 μl of 20 mM Tris-HCl lysis buffer previously distributed in Microbead tubes (Ultraclean Microbial DNA isolation kit Bead Tubes, MO BIO Laboratories, Carlsbad, USA). Mechanical lysis of bacteria was performed by strong agitation of Microbead tubes using a vortex adapter (MO BIO Laboratories) for 30 min at room temperature. This bacterial suspension was centrifuged at 10,000×g at room temperature for 5 min. Thirty μl of the supernatant was mixed in a well of a 96-well tray with 100 μl of a 1 ml solution made of 3 mg of purified cefotaxime sodium salt (Sigma-Aldrich, Saint-Quentin-Fallavier, France) in a pH 7.8 phenol red solution. […] The phenol red solution was made by taking 2 ml of a concentrated pH 8 phenol solution (made from a mixture of phenol red 0.5% in distilled water) to which 16.6 ml of distilled water was added. The pH value was then adjusted to a 7.8 value by adding drops of a 1 N NaOH solution. Mixture of the phenol red solution and the enzymatic suspension being tested was incubated at 37° C. for 30 min. Similarly, culture extracts were analyzed in wells containing cefotaxime and tazobactam (4 mg/ml). […]

M. morganii = test: Susceptibility testing, MIC by Etest; format: cell-based, Morganella morganii; settings: M. morganii Wild-type, chromosome-encoded cephalosporinase, n=2
Experimental: as §2

P. mirabilis = test: Susceptibility testing, MIC by Etest; format: cell-based, Proteus mirabilis
Experimental: as §2

**Q.** How did the “ESBL NDP Test from: Colonies” value (C. freundii [1]; C. freundii BG 1106 7767, Wild-type) turn out when `CO/N=C(\C(=O)N[C@@H]1C(=O)N2C(C(=O)O)=C(COC(C)=O)CS[C@H]12)c1csc(N)n1` [CTX, cefotaxime] was run?
**A.** −

**Q.** And the “Test (color change)” value (C. freundii [1]; C. freundii CTX-M-15, n=3)?
**A.** +

**Q.** And the “Test (color change)” value (C. freundii [1]; C. freundii TEM-3, n=1)?
**A.** +

**Q.** And the “Test (color change)” value (C. freundii [1]; C. freundii Wild-type, chromosome-encoded cephalosporinase, n=1)?
**A.** −

**Q.** And the “ESBL NDP Test from: Blood culture” value (K. pneumoniae; K. pneumoniae 09.127, SHV-2a)?
**A.** +

**Q.** And the “ESBL NDP Test from: Blood culture” value (K. pneumoniae; K. pneumoniae 09.138, TEM-3)?
**A.** +

**Q.** What about the “ESBL NDP Test from: Blood culture” value (K. pneumoniae; K. pneumoniae 09.158, SHV-12) of the same compound?
**A.** +

**Q.** What about the “ESBL NDP Test from: Blood culture” value (K. pneumoniae; K. pneumoniae 09.162, TEM-52) of the same compound?
**A.** +

**Q.** What about the “ESBL NDP Test from: Blood culture” value (K. pneumoniae; K. pneumoniae 09.169, TEM-52) of the same compound?
**A.** +

**Q.** And the “ESBL NDP Test from: Blood culture” value (K. pneumoniae; K. pneumoniae 09.181, SHV-2a)?
**A.** +

**Q.** What about the “ESBL NDP Test from: Blood culture” value (K. pneumoniae; K. pneumoniae 09.190, SHV-2a) of the same compound?
**A.** +

**Q.** And the “ESBL NDP Test from: Blood culture” value (K. pneumoniae; K. pneumoniae 09.200, TEM-3)?
**A.** +

**Q.** What about the “ESBL NDP Test from: Blood culture” value (K. pneumoniae; K. pneumoniae 09.217, SHV-5) of the same compound?
**A.** +

**Q.** And the “ESBL NDP Test from: Blood culture” value (K. pneumoniae; K. pneumoniae 09.45, SHV-12)?
**A.** +

**Q.** And the “ESBL NDP Test from: Blood culture” value (K. pneumoniae; K. pneumoniae 09.60, SHV-5)?
**A.** +

**Q.** What about the “ESBL NDP Test from: Blood culture” value (K. pneumoniae; K. pneumoniae 09.99, SHV-2a) of the same compound?
**A.** +

**Q.** And the “ESBL NDP Test from: Blood culture” value (K. pneumoniae; K. pneumoniae 10.159, CTX-M-3)?
**A.** +

**Q.** What about the “ESBL NDP Test from: Blood culture” value (K. pneumoniae; K. pneumoniae ANG, DHA-1) of the same compound?
**A.** −

**Q.** What about the “ESBL NDP Test from: Blood culture” value (K. pneumoniae; K. pneumoniae BG 1202 5484, Penicillinase) of the same compound?
**A.** −

**Q.** What about the “ESBL NDP Test from: Blood culture” value (K. pneumoniae; K. pneumoniae FOR, DHA-2) of the same compound?
**A.** +

**Q.** What about the “ESBL NDP Test from: Blood culture” value (K. pneumoniae; K. pneumoniae MEK, CTX-M-15) of the same compound?
**A.** +

**Q.** What about the “ESBL NDP Test from: Blood culture” value (K. pneumoniae; K. pneumoniae SHI, CTX-M-15) of the same compound?
**A.** +

**Q.** What about the MICs range (E. sakazakii) of the same compound?
**A.** >16 µg/mL

**Q.** What about the MICs range (S. ficaria) of the same compound?
**A.** 0.12 µg/mL

**Q.** What about the MICs range (C. brakii) of the same compound?
**A.** 0.12 µg/mL

**Q.** What about the “ESBL NDP Test from: Blood culture” value (C. freundii [2]) of the same compound?
**A.** −

**Q.** And the MICs range (P. stuartii)?
**A.** 0.5 µg/mL

**Q.** What about the “color of the wells” value (Enterobacteriaceae) of the same compound?
**A.** turned from red to yellow

**Q.** What about the MICs range (M. morganii) of the same compound?
**A.** 0.03 to 0.75 µg/mL

**Q.** And the MICs range (P. mirabilis; P. mirabilis ACC-1, n=1)?
**A.** >16 µg/mL

**Q.** And the MICs range (P. mirabilis; P. mirabilis CTX-M-14, n=1)?
**A.** >16 µg/mL

**Q.** And the MICs range (P. mirabilis; P. mirabilis CTX-M-15, n=1)?
**A.** >16 µg/mL

**Q.** What about the MICs range (P. mirabilis; P. mirabilis PER-1, n=1) of the same compound?
**A.** >16 µg/mL

**Q.** What about the MICs range (P. mirabilis; P. mirabilis TEM-21, n=1) of the same compound?
**A.** 0.25 µg/mL

**Q.** And the MICs range (P. mirabilis; P. mirabilis TEM-52, n=1)?
**A.** >16 µg/mL

— patent US10793892B2, “Method for detecting the presence of expanded spectrum β-lactamase-producing bacteria in a sample” (INSERM (INSTITUT NATIONAL DE LA SANTE ET DE LA RECHERCHE …, priority 2011, dated 2020)
